Measurements published in patent publication US20240158446A1, “CYCLIC COMPOUND HAVING SELECTIVE INHIBITORY ACTION ON KRAS OVER HRAS AND NRAS” (CHUGAI SEIYAKU KABUSHIKI KAISHA, priority 2021, published 2024).

Assays:
[1] = molecular target: GDP-bound NRAS wild-type protein (Homo sapiens, UniProt P01111); test: Binding to NRAS by surface plasmon resonance (SPR), Single Cycle Kinetics; conditions: for NRAS/KRAS (ratio of KD value with respect to GDP-bound NRAS wild-type protein to KD value with respect to KRAS): SPR KD ratio NRAS/KRAS, class symbols
Sequence of GDP-bound NRAS wild-type protein (P01111 whole entry): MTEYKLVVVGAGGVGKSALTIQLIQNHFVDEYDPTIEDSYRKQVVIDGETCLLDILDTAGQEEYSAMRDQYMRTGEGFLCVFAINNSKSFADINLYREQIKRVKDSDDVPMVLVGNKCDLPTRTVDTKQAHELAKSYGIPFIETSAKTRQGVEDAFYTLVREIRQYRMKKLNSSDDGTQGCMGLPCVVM

[2] = molecular target: GDP-bound HRAS wild-type protein (Homo sapiens, UniProt P01112); test: Binding to HRAS by surface plasmon resonance (SPR), Single Cycle Kinetics; conditions: for HRAS/KRAS (ratio of KD value with respect to GDP-bound HRAS wild-type protein to KD value with respect to KRAS): SPR KD ratio HRAS/KRAS, class symbols
Sequence of GDP-bound HRAS wild-type protein (P01112 whole entry): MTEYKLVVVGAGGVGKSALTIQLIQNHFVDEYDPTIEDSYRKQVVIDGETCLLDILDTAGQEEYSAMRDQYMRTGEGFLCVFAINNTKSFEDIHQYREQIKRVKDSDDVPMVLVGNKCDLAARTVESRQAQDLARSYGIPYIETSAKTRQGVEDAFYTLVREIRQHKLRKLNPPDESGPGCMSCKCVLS

[3] = SPR, GDP-bound NRAS wild-type protein vs GDP-bound KRAS wild-type protein
[4] = SPR, GDP-bound HRAS wild-type protein vs GDP-bound KRAS wild-type protein

Row | Compound | NRAS/KRAS (ratio of KD value for NRAS to KD value for KRAS) [1, 3] | HRAS/KRAS (ratio of KD value for HRAS to KD value for KRAS) [2, 4] | NRAS/KRAS (ratio of KD value with respect to GDP-bound NRAS wild-type protein to KD value with respect to KRAS) [1] | HRAS/KRAS (ratio of KD value with respect to GDP-bound HRAS wild-type protein to KD value with respect to KRAS) [2] | other results
1 | CCC[C@H]1C(=O)N[C@@H]([C@@H](C)CC)C(=O)N(C2CC2)CC(=O)N(C)[C@H]2C/C=C\CCN(C2=O)[C@@H](Cc2ccc(C)cc2)C(=O)N(C)CC(=O)N[C@@H](CCc2ccc(C(F)(F)F)c(OC)c2)C(=O)N2C[C@H](OCC)C[C@H]2C(=O)NC2(CC(C)(C)C2)C(=O)N(C)[C@@H](C2CCCC2)C(=O)N(C)[C@H](C(=O)N(C)C)CC(=O)N1C [PP2097] | A (a compound having 10 or more and less than 20 is denoted as A) | A (a compound having 10 or more and less than 20 is denoted as A) |  |  | 
2 | CCC[C@H]1C(=O)N[C@@H](C2CCCC2)C(=O)N(C)CC(=O)N(C)[C@H]2C/C=C\CCN(C2=O)[C@@H](Cc2ccc(C)cc2)C(=O)N(C)CC(=O)N[C@@H](CCc2ccc(C(F)(F)F)c(OC)c2)C(=O)N2CC3(CC3)C[C@H]2C(=O)NC2(CC(C)(C)C2)C(=O)N(C)[C@@H](CC(C)(C)C)C(=O)N(C)[C@H](C(=O)N(C)C)CC(=O)N1C [PP3010] | B (a compound having 3 or more and less than 10 is denoted as B) | B (a compound having 3 or more and less than 10 is denoted as B) |  |  | 
3 | CCC[C@H]1C(=O)N[C@@H]([C@@H](C)CC)C(=O)N(C)CC(=O)N(C)[C@H]2C/C=C\CCN(C2=O)[C@@H](Cc2ccc(C)cc2)C(=O)N(C)CC(=O)N[C@@H](CCc2cc(F)c(C(F)(F)F)c(F)c2)C(=O)N2C[C@H](CC)C[C@H]2C(=O)NC2(CCCC2)C(=O)N(C)[C@@H](C2CCCC2)C(=O)N(C)[C@H](C(=O)N(C)C)CC(=O)N1C [PP2216] | A (a compound having 10 or more and less than 20 is denoted as A) | A (a compound having 10 or more and less than 20 is denoted as A) |  |  | 
4 | CCO[C@@H]1C[C@H]2C(=O)NC3(CCC3)C(=O)N(C)[C@@H](C3CCCC3)C(=O)N(C)[C@H](C(=O)N(C)C)CC(=O)N(C)[C@@H](CC3CCCC3)C(=O)N[C@@H]([C@@H](C)CC)C(=O)N(C)CC(=O)N(C)[C@H]3CCCCN(C3=O)[C@@H](Cc3ccc(C(F)(F)F)cc3)C(=O)N(C)CC(=O)N[C@@H](CCc3cc(F)c(C(F)(F)F)c(F)c3)C(=O)N2C1 [PP0700] |  |  |  |  | NRAS/KRAS (ratio of KD value with respect to NRAS to KD value with respect to KRAS) [1, 3]: C (A compound having a KD ratio of 0.1 or more and less than 3 is denoted as C); HRAS/KRAS (ratio of KD value with respect to HRAS to KD value with respect to KRAS) [2, 4]: B (a compound having 3 or more and less than 10 is denoted as B)
5 | CCC(CC)[C@H]1C(=O)N(C)[C@H](C(=O)N(C)C)CC(=O)N(C)[C@@H](COC)C(=O)N[C@@H]([C@@H](C)CC)C(=O)N(C)CC(=O)N(C)[C@H]2C/C=C\CCN(C2=O)[C@@H](Cc2ccc(C)cc2)C(=O)N(C)CC(=O)N[C@@H](CCc2ccc(C(F)(F)F)c(Cl)c2)C(=O)N2CC3(CC3)C[C@H]2C(=O)NC2(CC(C)(C)C2)C(=O)N1C [PP2967] |  |  | AA (a compound having 20 or more is denoted as AA) | A (a compound having 10 or more and less than 20 is denoted as A) | 
6 | CCOC[C@H]1C(=O)N[C@@H]([C@@H](C)CC)C(=O)N(C)CC(=O)N(C)[C@H]2C/C=C\CCN(C2=O)[C@@H](Cc2ccc(C3CC3)cc2)C(=O)N(C)CC(=O)N[C@@H](CCc2ccc(C(F)(F)F)c(OC)c2)C(=O)N2C[C@@H](C)C[C@H]2C(=O)NC2(CC(C)(C)C2)C(=O)N(C)[C@@H](C2CCCC2)C(=O)N(C)[C@H](C(=O)N(C)CC)CC(=O)N1C [PP2700] |  |  | A (a compound having 10 or more and less than 20 is denoted as A) | B (a compound having 3 or more and less than 10 is denoted as B) | 
